Like-named read-outs stand apart in the source and are kept apart here.
Key:
Ih channel = conditions: literature (Neuroscience 1994; Br J Pharmacol 1998); cited from earlier work
[1] = tested on: healthy cats and cats with hypertrophic cardiomyopathy; conditions: cited from earlier work
[2] = tested on: cats suffering from HF due to HCM; assay: Blinded, controlled, randomised efficacy field study in HCM cats; assay type: in vivo; set-up: key to Right heart enlargement (score): Score 1: normal size; Score 2: mild enlargement; Score 3: moderate enlargement; Score 4: severe enlargement; conditions: HCM cat; for Right heart enlargement (score): X-ray
Experimental: A blinded, controlled, randomised, efficacy field study was conducted with HCM cats receiving cilobradine (initial dose: 0.2 mg/kg po. twice daily) or a placebo (dose: 0.0 mg/kg po. twice daily) for 85 days. The dose of cilobradine could be adjusted during the study (dose range 0.1-0.5 mg/kg per-oral twice daily). The administration of furosemide was allowed in both groups. All cats were hospitalised in the first week of the study (study days 1-6), and they were allowed to go home afterwards (study days 7-85).
Cats with a diagnosis of HCM were included in the study. The diagnosis of HCM was established by using echocardiography showing global, regional or segmental thickness of the interventricular septum and/or left ventricular free-wall in diastole greater than 6 mm. Further inclusion criteria were: systolic blood pressure less than 170 mmHg; serum thyroxine (T4) was normal; and body weight was higher than 2 kg.
The owner provided a signed informed consent for the animal to enter the study. Cats that suffered from heart disease were scored using a 4 point score adapted from the ISACHC as follows: • Score 1: presence of heart disease associated with no clinical signs but detectable (e,g, auscultation, echocardiography and radiography); • Score 2: clinical signs of heart failure evident and adversely affect the quality of life. Typical signs include dyspnea/tachypnea, pulmonary congestion, weakness/lethargy, anorexia, exercise intolerance; • Score 3: clinical signs of advance heart failure immediately obvious. These clinical signs could have included respiratory distress, marked ascites/pulmonary congestion, profound exercise intolerance or hypoperfusion at rest; and • Score 4: severe cases: subject was moribund, suffered from cardiogenic shock or acute posterior paresis/paralysis. Hospitalization was mandatory.
Cats having one or more of the following criteria were excluded: • a) The cat had received one or more of the following pretreatments: calcium channel blockers, e.g. diltiazem, angiotensin converting enzyme inhibitors, f3-blockers, acetylsalicylic acid, or digitales glycosides. (Cats pre-treated with furosemide alone were allowed to be included in either of the groups if they matched all inclusion criteria above.) • b) Elevated serum T4 level; • c) Elevated serum blood urea nitrogen (BUN) levels higher than 90 mg/dL or elevated serum creatinine levels higher than 3 mg/dL; • d) Systolic arterial blood pressure greater than or equal to 170 mmHg; • e) Dilated cardiomyopathy (DCM); • f) Suffered from heart disease with a score of 4 (adapted ISACHC score) or with no documented episode of heart failure (score 2 or 3) within 30 days before enrollment; • g) Fixed aortic stenosis; • h) Were pregnant or lactating queens; • i) Were nursing kittens; • j) Body weight less than 2 kg; or • k) Presence of sinus bradycardia (heart rate less than 120 bpm at consultation).
The cat's quality of life was assessed on a daily basis using the following grading system: 1 (better), 2 (equal), 3 (worse).
Furthermore, right heart enlargement was assessed by X-ray using the following scoring system: Score 1: normal size; Score 2: mild enlargement; Score 3: moderate enlargement; and Score 4: severe enlargement. Mild enlargement of the right side of the heart was observed using X-ray in the cat receiving a placebo at the end of the study. In contrast, the right side of the heart was normal in the cat receiving cilobradine throughout the study (see Table 10).

[3] = Pharmacokinetics in healthy cats, once daily po. for 4 days; assay type: in vivo; conditions: cat
Experimental: (§1) Cilobradine chloride salt was administered at a dose of 5, 10 and 20 mg per subject in the form of capsules. These doses are equal to 0.07, 0.14, and 0.28 mg/kg cilobradine chloride salt assuming a body weight of 70 kg. […] Cilobradine hydrochloride was administered at a dose of 0.1 mg/kg and 0.3 mg/kg as a suspension. […] There are some differences between cats and humans in terms of pharmacokinetics of cilobradine, which might be related to differences in absorption, metabolisation, distribution, or excretion.

[4] = Pharmacokinetics in healthy human male subjects, once daily po. for 7 days; assay type: in vivo
Experimental: as §1

heart rate [5] = assay: Heart rate after oral administration in humans; assay type: in vivo, human; conditions: over 9 h following administration, 5, 10, 20 mg per subject
Experimental: as §1

heart rate [6] = assay: Pharmacodynamic profile (telemetric heart rate) in the conscious cat; assay type: in vivo
Experimental: as §1
The pharmacodynamic profile of cilobradine hydrochloride was characterised at two dose levels administered by the oral route, once and twice daily, in the conscious cat. The study involved 2 groups of 3 male European Short Hair cats weighing between 4.15 kg and 4.75 kg on the day of the first treatment. Each cat was dosed with cilobradine hydrochloride once (sid) and twice (bid) daily successively at 0.1 or 0.3 mg/kg in a cross over-design. Each treatment was separated by an interval of 24 hours (sid) or 12 hours (bid). A washout period of 7 days was scheduled between the 2 dosing periods. Cats were previously instrumented with telemetric transmitters for heart rate measurements. Telemetric measurements were recorded for 15 seconds every 5 minutes at a sampling rate of 500 Hz on D-2, D-1, from D0 up to D9 and from D16 up to D25 except for D4 and D20 during blood sampling.

healthy cats = assay: Effects on vasomotor tone, myocardial contractility and lusitropy in healthy cats; assay type: in vivo, cat; conditions: therapeutically relevant doses
From the text: “Funny If current inhibitors”, also referred to as “If channel blockers” or “If current inhibitors” herein, relate to If inhibitors including pharmaceutically acceptable salts thereof, which selectively block hyperpolarization-activated cyclic nucleotide-gated channels (HCN) in cardiac conductive tissue, channels responsible for the transmembrane current known as If. It is through blockade of this current that If channel blockers are assumed to produce their specific bradycardic effect. HCN channels are widely distributed in the nervous system and in the eye they mediate the current known as Ih. The effect of zatebradine and cilobradine on the Ih channel has also been investigated (See Neuroscience, Vol. 59(2), pp. 363-373, 1994 for zatebradine, and British Journal of Pharmacology, Vol. 125, pp. 741-750, 1998 for cilobradine). […] Cilobradine in particular reduces the heart rate in the sinoatrial node of the heart by selective blockade of If channels (“funny channels”) through a direct interaction with predominantly HCN4 channels. This blockage is potent and has a dosage and voltage dependency. Because of the high selectivity to the If current, effects on vasomotor tone or myocardial contractility and lusitropy are not observed at therapeutically relevant doses in healthy cats. […]

[7] = tested on: left atrial systolic and global function; conditions: feline CMP; cited from earlier work
Lipophilicity profile = assay type: physicochemical; conditions: neutral pH versus acidic pH
From the text: Usually, EC/HPMC films show a sustained release behaviour that is independent of pH. […] This profile, together with the coating applied, may have led to a slower release.

In the case of `COc1ccc(CCN(C)CCCN2CCc3cc(OC)c(OC)cc3CC2=O)cc1OC` [zatebradine, reference compound], the “block of Ih” value (Ih channel) is listed as “can also be blocked”.
In the case of `COc1cc2c(cc1OC)CC(=O)N(CCCN(C)C[C@H]1Cc3cc(OC)c(OC)cc31)CC2` [ivabradine, 3-[3-[[[(7S)-3,4-dimethoxybicyclo[4.2.0]octa-1,3,5-trien-7-yl]methyl]methylamino]propyl]-1,3,4,5-tetrahydro-7,8-dimethoxy-2H-3-benzazepin-2-one], the heart rate reduction ([1]; healthy cats) is given as “significant heart rate reduction”, the “negative chronotropic effect, dose relation” value ([1]; healthy cats) is given as “dose-dependency” and the heart rate reduction ([1]; subclinical HCM cats) is given as “significant heart rate reduction”.
For `COc1ccc(CCN2CCC[C@H](CN3CCc4cc(OC)c(OC)cc4CC3=O)C2)cc1OC` [Cilobradine, (+)-3-[(N-(2-(3,4-dimethoxy-phenyl)ethyl)-piperidin-3-(S)-yl)-methyl]-(7,8-dimethoxy-1,3,4,5-tetrahydro-2H-3-benzazepin-2-on)], the “reduction of the interventricular septal thickness in systole compared to placebo” value [2] was “considerably greater”, the “Interventricular septal thickness in systole” value ([2]; SD 0 (baseline)) was 11.7 mm and the Heart rate ([2]; SD 0 (baseline), initial dose 0.2 mg/kg po. twice daily) was 152 beats per minutes. The Heart rate ([2]; SD 7) was 120 beats per minutes, the Heart rate ([2]; SD 28) was 144 beats per minutes and the Heart rate ([2]; SD 56) was 124 beats per minutes. For the same compound, the Heart rate ([2]; SD 84) was 210 beats per minutes, the “Interventricular septal thickness in systole” value ([2]; SD 84) was 7.5 mm and the “Right heart enlargement (score)” value ([2]; SD 0 (baseline)) was 1. For the same compound, the “Right heart enlargement (score)” value ([2]; SD 84) was 1, the quality of life ([2]; daily owner grading 1 (better), 2 (equal), 3 (worse), FIG. 1) was “almost continuous improvement” and the “heart rate (in words)” value ([2]; study period, versus placebo cat) was “reduced throughout the study”. The “right side of the heart (X-ray)” value ([2]; throughout the study) was “normal”, the Half-life ([3]; in vivo, healthy cats, once daily po. for 4 days, 0.1 and 0.3 mg/kg, read-out: half-life) was 2.53 to 3.52 h and the Half-life ([4]; in vivo, healthy human male subjects, once daily po. for 7 days, 5-20 mg per subject, read-out: half-life) was 10.1 to 13.9 h. The heart rate reduction (heart rate [5]) was “dose dependent heart rate reduction”, the “block of Ih” value (Ih channel) was “can also be blocked” and the heart rate reduction (heart rate [6]; cats, over 9 h following administration, 0.1 and 0.3 mg/kg) was “dose dependent heart rate reduction”. The “effects on vasomotor tone or myocardial contractility and lusitropy” value (healthy cats) was “not observed”.
In the case of `CC(C)NCC(O)COc1ccc(CC(N)=O)cc1` (stereo not shown) [atenolol], the “left atrial systolic and global function” value [7] is given as “significantly decreased”.
Compound `COc1ccc(CCN2CCC[C@H](CN3CCc4cc(OC)c(OC)cc4CC3=O)C2)cc1OC.Cl` [cilobradine hydrochloride] has a Half-life ([3]; 0.1 mg/kg, suspension, once daily po. 4 days) of 3.52 h, a Half-life ([3]; 0.3 mg/kg, suspension, once daily po. 4 days) of 2.53 h and a Half-life ([4]; human, 5 mg/subject (0.07 mg/kg), capsules, once daily po. 7 days) of 13.9 h. For the same compound, the Half-life ([4]; human, 10 mg/subject (0.14 mg/kg), capsules, once daily po. 7 days) was 13.0 h, the Half-life ([4]; human, 20 mg/subject (0.28 mg/kg), capsules, once daily po. 7 days) was 10.1 h and the lipophilicity profile (Lipophilicity profile) was “slightly more lipophilic at neutral pH values”. For the same compound, the bradycardia (heart rate [6]; conscious cat, oral 0.1 and 0.3 mg/kg per day, sid and bid) was “dose-dependent bradycardia”.

Reference: patent publication US20130040937A1, “INHIBITORS FOR TREATING AND PREVENTING HEART FAILURE IN FELINES” (BOEHRINGER INGELHEIM VETMEDICA GMBH, priority 2011, published 2013)
